Results published in patent US20240158446A1, “CYCLIC COMPOUND HAVING SELECTIVE INHIBITORY ACTION ON KRAS OVER HRAS AND NRAS” (CHUGAI SEIYAKU KABUSHIKI KAISHA, priority 2021, published 2024).
Read-outs that look alike come from different tables or passages of the source. Where a SMILES comes first, the peptide text is derived from it. Bridges are numbered along the chain shown (N, C = ends). [ ]: non-standard residue; d: D form. The star is where a group is joined. hPhe(3-Cl-4-CF3) = N[C@@H](CCc1ccc(C(F)(F)F)c(Cl)c1)C(=O)O; NPrPhe(4-CF3) = CCCN[C@@H](Cc1ccc(C(F)(F)F)cc1)C(=O)O; NMeGly(cPent) = CN[C@H](C(=O)O)C1CCCC1; NMeL = CN[C@@H](CC(C)C)C(=O)O; Morpholide = C1CN(*)CCO1; Ac5c = NC1(C(=O)O)CCCC1; Sar = CNCC(=O)O

Assays:
[1] = target: GDP-bound NRAS wild-type protein (Homo sapiens, UniProt P01111); assay: Binding to NRAS by surface plasmon resonance (SPR), Single Cycle Kinetics; conditions: SPR, GDP-bound NRAS wild-type protein vs GDP-bound KRAS wild-type protein
GDP-bound NRAS wild-type protein, sequence (P01111 whole entry): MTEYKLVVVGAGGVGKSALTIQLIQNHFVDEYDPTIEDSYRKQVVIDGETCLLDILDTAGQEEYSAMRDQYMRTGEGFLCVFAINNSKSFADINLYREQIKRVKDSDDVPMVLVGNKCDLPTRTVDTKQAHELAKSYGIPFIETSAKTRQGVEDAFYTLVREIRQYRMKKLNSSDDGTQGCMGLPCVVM

[2] = target: GDP-bound KRAS wild-type protein (Homo sapiens, UniProt P01116); assay: Binding to KRAS by surface plasmon resonance (SPR), Single Cycle Kinetics; conditions: GDP-bound KRAS wild-type protein, read-out: KRAS KD
GDP-bound KRAS wild-type protein, sequence (P01116 whole entry): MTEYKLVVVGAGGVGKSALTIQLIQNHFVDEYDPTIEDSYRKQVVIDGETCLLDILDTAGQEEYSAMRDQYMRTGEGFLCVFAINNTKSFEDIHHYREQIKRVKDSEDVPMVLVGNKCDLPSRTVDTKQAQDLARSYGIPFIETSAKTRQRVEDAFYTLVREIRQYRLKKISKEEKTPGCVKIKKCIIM

[3] = target: GDP-bound HRAS wild-type protein (Homo sapiens, UniProt P01112); assay: Binding to HRAS by surface plasmon resonance (SPR), Single Cycle Kinetics; conditions: SPR, GDP-bound HRAS wild-type protein vs GDP-bound KRAS wild-type protein
GDP-bound HRAS wild-type protein, sequence (P01112 whole entry): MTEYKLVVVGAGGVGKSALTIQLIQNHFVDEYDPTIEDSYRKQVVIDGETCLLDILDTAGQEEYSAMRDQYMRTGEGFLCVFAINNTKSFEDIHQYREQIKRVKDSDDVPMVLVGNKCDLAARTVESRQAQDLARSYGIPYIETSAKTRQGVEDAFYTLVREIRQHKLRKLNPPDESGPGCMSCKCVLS

[4] = SPR Single Cycle Kinetics, 1:1 binding model

Row | Kd ([2]; SPR, Single Cycle Kinetics) [nM] | SMILES | NRAS/KRAS (ratio of KD value for NRAS to KD value for KRAS) [1] | HRAS/KRAS (ratio of KD value for HRAS to KD value for KRAS) [3] | further results
1 | 0.59 | CCC[C@H]1C(=O)N[C@@H](C2CCOCC2)C(=O)N(C)CC(=O)N(C)[C@H]2C/C=C\CCN(C2=O)[C@@H](Cc2ccc(C(F)(F)F)cc2)C(=O)N(C)CC(=O)N[C@@H](CCc2ccc(C(F)(F)F)c(Cl)c2)C(=O)N2C[C@H](OCC)C[C@H]2C(=O)NC2(CC(C)(C)C2)C(=O)N(C)[C@@H](CC(C)(C)C)C(=O)N(C)[C@H](C(=O)N(C)C)CC(=O)N1C [PP3022] | AA (a compound having 20 or more is denoted as AA) | A (a compound having 10 or more and less than 20 is denoted as A) | –
2 | 0.033 | CCO[C@@H]1C[C@H]2C(=O)NC3(CCC3)C(=O)N(C)[C@@H](C3CCCC3)C(=O)N(C)[C@H](C(=O)N(C)C)CC(=O)N(C)[C@@H](C)C(=O)N[C@@H]([C@@H](C)CC)C(=O)N(C)CC(=O)N(C)[C@H]3C/C=C\CCN(C3=O)[C@@H](Cc3ccc(C(F)(F)F)cc3)C(=O)N(C)CC(=O)N[C@@H](CCc3cc(F)c(C(F)(F)F)c(F)c3)C(=O)N2C1 [PP1108, (2S,8S,12R,14S,20S,23S,27S,30S,36S,38Z)-20-cyclopentyl-8-[2-[3,5-difluoro-4-(trifluoromethyl)phenyl]ethyl]-12-ethoxy-N,N,4,19,22,26,27,32,35-nonamethyl-30-[(1S)-1-methylpropyl]-3,6,9,15,18,21,25,28,31,34,42-undecaoxo-2-[[4-(trifluoromethyl)phenyl]methyl]spiro[1,4,7,10,16,19,22,26,29,32,35-undecazatricyclo[34.5.1.0^10,14]dotetracont-38-ene-17,1′-cyclobutane]-23-carboxamide] | A (a compound having 10 or more and less than 20 is denoted as A) | A (a compound having 10 or more and less than 20 is denoted as A) | –
3 | 0.1 | CC[C@H](C)[C@@H]1NC(=O)[C@H](C2CCC2)N(C)C(=O)C[C@@H](C(=O)N(C)CC)N(C)C(=O)[C@H](C2CCCC2)N(C)C(=O)C2(CCC2)NC(=O)[C@@H]2C[C@H](C)CN2C(=O)[C@H](CCc2ccc(C(F)(F)F)c(OC)c2)NC(=O)CN(C)C(=O)[C@H](Cc2ccc(C(F)(F)F)cc2)N2CC/C=C\C[C@@H](C2=O)N(C)C(=O)CN(C)C1=O [PP2071] | A (a compound having 10 or more and less than 20 is denoted as A) | A (a compound having 10 or more and less than 20 is denoted as A) | –
4 | 0.1 | C=CC[C@H]1C(=O)N[C@@H]([C@@H](C)CC)C(=O)N(C)CC(=O)N(C)[C@H]2CCCCN(C2=O)[C@@H](Cc2ccc(C(F)(F)F)cc2)C(=O)N(C)CC(=O)N[C@@H](CCc2cc(F)c(C(F)(F)F)c(F)c2)C(=O)N2C[C@H](OCC)C[C@H]2C(=O)N[C@](C)(CC=C)C(=O)N(C)[C@@H](C2CCCC2)C(=O)N(C)[C@H](C(=O)N2CCOCC2)CC(=O)N1C [PP0874] | C (A compound having a KD ratio of 0.1 or more and less than 3 is denoted as C) | B (a compound having 3 or more and less than 10 is denoted as B) | –
5 | – | CCO[C@@H]1C[C@H]2C(=O)NC3(CCC3)C(=O)N(C)[C@@H](C3CCCC3)C(=O)N(C)[C@H](C(=O)N3CCOCC3)CC(=O)N(C)[C@@H](CCOC)C(=O)N[C@@H]([C@@H](C)CC)C(=O)N(C)CC(=O)N(C)[C@H]3CCCCCN(C3=O)[C@@H](Cc3ccc(C(F)(F)F)cc3)C(=O)N(C)CC(=O)N[C@@H](CCc3cc(F)c(C(F)(F)F)c(F)c3)C(=O)N2C1 [PP0690] | – | – | NRAS/KRAS (ratio of KD value with respect to NRAS to KD value with respect to KRAS) [1]: B (a compound having 3 or more and less than 10 is denoted as B); Kd [2, 4]: 0.46 nM; HRAS/KRAS (ratio of KD value with respect to HRAS to KD value with respect to KRAS) [3]: B (a compound having 3 or more and less than 10 is denoted as B)
6 | 0.076 | CC[C@H](C)[C@@H]1NC(=O)[C@H](CC(C)C)N(C)C(=O)C[C@@H](C(=O)N2CCOCC2)N(C)C(=O)[C@H](C2CCCC2)N(C)C(=O)C2(CCC2)NC(=O)[C@@H]2C[C@@H](OC)CN2C(=O)[C@H](CCc2cc(F)c(C(F)(F)F)c(F)c2)NC(=O)CN(C)C(=O)[C@H](Cc2ccc(C(F)(F)F)cc2)N2CCCC[C@@H](C2=O)N(C)C(=O)CN(C)C1=O [PP1003] | C (A compound having a KD ratio of 0.1 or more and less than 3 is denoted as C) | B (a compound having 3 or more and less than 10 is denoted as B) | –
7 | – | CC[C@H](C)[C@@H]1NC(=O)[C@H](CC2CCCC2)N(C)C(=O)C[C@@H](C(=O)N(C)C)N(C)C(=O)[C@H](C2CCCC2)N(C)C(=O)C2(CCC2)NC(=O)[C@@H]2C[C@@H](C(F)(F)F)CN2C(=O)[C@H](CCc2cc(F)c(C(F)(F)F)c(F)c2)NC(=O)CN(C)C(=O)[C@H](Cc2ccc(C(F)(F)F)cc2)N2CC/C=C\C[C@@H](C2=O)N(C)C(=O)CN(C)C1=O [PP1505] | – | – | NRAS/KRAS (ratio of KD value for NRAS to KD value for KRAS) ([1]; KD ratio class): A (a compound having 10 or more and less than 20 is denoted as A); Kd ([2]; SPR, Single Cycle Kinetics, 1:1 binding model): 0.092 nM; HRAS/KRAS (ratio of KD value for HRAS to KD value for KRAS) ([3]; KD ratio class): A (a compound having 10 or more and less than 20 is denoted as A)
8 | 0.4 | CCO[C@@H]1C[C@H]2C(=O)NC3(CC(C)(C)C3)C(=O)N(C)[C@@H](C(CC)CC)C(=O)N(C)[C@H](C(=O)N3CCCC3)CC(=O)N(C)[C@@H](COC)C(=O)N[C@@H]([C@@H](C)CC)C(=O)N(C)CC(=O)N(C)[C@H]3C/C=C\CCN(C3=O)[C@@H](Cc3ccc(C(F)(F)F)cc3)C(=O)N(C)CC(=O)N[C@@H](CCc3ccc(Cl)c(Cl)c3)C(=O)N2C1 [PP2174] | AA (a compound having 20 or more is denoted as AA) | A (a compound having 10 or more and less than 20 is denoted as A) | –
9 | – | CCCN1C(=O)CN(C)C(=O)CNC(=O)[C@H]([C@@H](C)CC)NC(=O)[C@H](CC(C)C)N(C)C(=O)C[C@@H](C(=O)N2CCOCC2)NC(=O)[C@H](C2CCCC2)N(C)C(=O)C2(CCCC2)NC(=O)[C@@H]2CCCN2C(=O)[C@H](CCc2ccc(C(F)(F)F)c(Cl)c2)NC(=O)CN(C)C(=O)[C@@H]1Cc1ccc(C(F)(F)F)cc1 [PP0325] ([NMeL]IG[Sar][NPrPhe(4-CF3)][Sar][hPhe(3-Cl-4-CF3)]P[Ac5c][NMeGly(cPent)]D-Morpholide; lactam N-11) | B (a compound having 3 or more and less than 10 is denoted as B) | B (a compound having 3 or more and less than 10 is denoted as B) | Kd [2, 4]: 1.1 nM
